According to patent US11439657B2, “Cancer stem cell growth inhibitor using miRNA” (CancerStem Tech Inc., priority 2017, dated 2022):
Entries after “also recorded” stand apart in the source; their conditions may differ.

What was measured:
[1] = test system: cancer stem cell population (ZsGreen+) established from pancreatic cancer cell line Panc-1; experiment: Screening of miRNAs: cell count (cell viability) of the cancer stem cell population after transfection; format: cell-based, human; conditions: miRNA 10 pmol/well, lipofectamin 2000, cells counted 48 and 72 hours later, FIG. 4
Description: A cancer stem cell line was established by transducing a pancreatic cancer cell line (Panc-1) with an ODC (Ornithine Decarboxylase)-Degron system capable of visualizing low metabolism that is a property of cancer stem cells using a retrovirus vector (FIG. 1a). The base sequence coding the used ODC-Degron is as set forth in SEQ ID NO: 10. Usually, cancer stem cells are so 26s proteasome hypometabolic that they cannot degrade the introduced fluorescently labeled Ornithine Decarboxylase Degron, and thus the fluorescent protein sufficiently accumulates to provide visualization.
However, even when the ODC-degron system was introduced into the pancreatic cancer cell line Panc-1, only about 0.06% cells emitting fluorescence (green) were obtained in total. With such a small number of cancer stem cells, a series of experiments including drug screening cannot be performed. Accordingly, further enrichment of cancer stem cells provided a cancer stem cell population in which cells having observed fluorescent coloring (i.e., cancer stem cells) accounted for about 81.18% in total (FIG. 1b). The obtained cancer stem cell population was designated as ZsGreen+.
A cell suspension prepared by suspending the cancer stem cell population (ZsGreen+) in a medium (DMEM medium containing 10% by volume FBS) was seeded in each well of a 24-well plate at a density of 5000 to 10000 cells/well, followed by culture at 37° C. overnight. Thereafter, according to the lipofectamin 2000 protocol, each miRNA was transfected at 10 pmol/well, and 48 hours and 72 hours later, the cells were counted. In addition, tests were also conducted under the same condition on a case where the miRNA was not introduced (untreated group, control), a case where has-miR-34a (SEQ ID NO: 8) was used (positive control) in place of the selected miRNA, and a case where a control miRNA (SEQ ID NO: 9) was used (NC1, negative control) in place of the selected miRNA. In addition, for comparison, the non-cancer stem cell population (ZsGreen−) was used in place of the cancer stem cell population (ZsGreen+) to conduct tests under the same condition.
The ratio of the number of cells under each condition to the number of control cells into which the miRNA was not introduced (cell viability, %) was determined.

[2] = test system: human pancreatic cancer cells (Bxpc3 line); experiment: Antitumor effect on human pancreatic cancer cells (1), cell count after transfection; format: cell-based; conditions: 10 pmol/well, FIG. 8; for antitumor effect: 48 hours, positive control hsa-miR-34a; for proliferation inhibitory effect on pancreatic cancer cells: cells counted 48 hours later
Protocol: (§1) A cell suspension prepared by suspending human pancreatic cancer cells (Bxpc3 line) in D-MEM medium (containing 10% by volume FBS) was seeded in each well of a 24-well plate at 3×10^3 cells/well, followed by culture at 37° C. overnight. Thereafter, according to the lipofectamin 2000 protocol, each miRNA was transfected at 10 pmol/well, and 48 hours later, the cells were counted. In addition, tests were also conducted under the same condition on a case where the miRNA was not introduced (untreated group), a case where hsa-miR-34a (SEQ ID NO: 8) was used (positive control) in place of the miRNA, and a case where a control miRNA (SEQ ID NO: 9) was used (control miRNA, negative control) in place of the selected miRNA.

[3] = test system: human pancreatic cancer cells (PSN-1 line); experiment: Antitumor effect on human pancreatic cancer cells (2), cell count after transfection; format: cell-based; conditions: 10 pmol/well, 48 hours, FIG. 9
Protocol: as §1
As to hsa-miR-136-5p, hsa-miR-3065-3p and hsa-miR-181a-5p, evaluation was performed of the antitumor effect on human pancreatic cancer cells. The specific test method is the same as that for Test Example 4 except that a PSN-1 line was used as human pancreatic cancer cells.

[4] = test system: human gastric cancer cells (AGS line); experiment: Antitumor effect on human gastric cancer cells, cell count after transfection; format: cell-based; conditions: 10 pmol/well, 48 hours, FIG. 10; for antitumor effect: positive control hsa-miR-34a
Protocol: as §1
As to hsa-miR-136-5p, hsa-miR-3065-3p and hsa-miR-181a-5p, evaluation was performed of the antitumor effect on human gastric cancer cells. The specific test method is the same as that for Test Example 4 except that human gastric cancer cells (AGS line) were used as cancer cells.

[5] = test system: human large bowel cancer cells (DLD1 line); experiment: Antitumor effect on human large bowel cancer cells, cell count after transfection; format: cell-based; conditions: 10 pmol/well, FIG. 11; for antitumor effect: 72 hours, positive control hsa-miR-34a; for proliferation inhibitory effect on large bowel cancer cells: cells counted 72 hours after transfection
Protocol: as §1
As to hsa-miR-136-5p, hsa-miR-3065-3p, hsa-miR-4727-5p, hsa-miR-378g, hsa-miR-181a-5p, hsa-miR-362-5p and hsa-miR-608, evaluation was performed of the antitumor effect on human large bowel cancer cells. The specific test method is the same as that for Test Example 4 except that human large bowel cancer cells (DLD1 line) were used as cancer cells, and that the cells were counted 72 hours after transfection.

[6] = test system: human esophageal cancer cells (TE11 line); experiment: Antitumor effect on human esophageal cancer cells, cell count after transfection; format: cell-based; conditions: 10 pmol/well, FIG. 12; for antitumor effect: 72 hours, positive control hsa-miR-34a; for proliferation inhibitory effect on esophageal cancer cells: cells counted 72 hours after transfection
Protocol: as §1
As to hsa-miR-136-5p, hsa-miR-3065-3p, hsa-miR-4727-5p, hsa-miR-378g and hsa-miR-181a-5p, evaluation was performed of the antitumor effect on human esophageal cancer cells. The specific test method is the same as that for Test Example 4 except that human esophageal cancer cells (TE11 line) were used as cancer cells, and that the cells were counted 72 hours after transfection.

| Substance | proliferation inhibitory effect on cancer stem cells (cell viability) [1] | antitumor effect [2] | proliferation inhibitory effect on pancreatic cancer cells [2] | antitumor effect [3] | proliferation inhibitory effect on pancreatic cancer cells [3] | proliferation inhibitory effect on gastric cancer cells [4] | antitumor effect [4] | antitumor effect [5] | proliferation inhibitory effect on large bowel cancer cells [5] | antitumor effect [6] | proliferation inhibitory effect on esophageal cancer cells [6] |
| --- | --- | --- | --- | --- | --- | --- | --- | --- | --- | --- | --- |
| hsa-miR-136-5p: human-derived miR-136-5p; base sequence set forth in SEQ ID NO: 1 as mature miRNA (ACUCCAUUUGUUUUGAUGAUGGA; listed as RNA, chemistry not given here; listed as Homo sapiens) | effectively suppress proliferation of cancer stem cells; also recorded: prominent proliferation inhibitory effect | much better antitumor effect than that of hsa-miR-34a; also recorded: particularly remarkable antitumor effect | strong proliferation inhibitory effect | particularly remarkable antitumor effect | strong proliferation inhibitory effect | strong proliferation inhibitory effect | much better antitumor effect than that of hsa-miR-34a; also recorded: particularly remarkable antitumor effect | much better antitumor effect than that of hsa-miR-34a; also recorded: particularly remarkable antitumor effect | strong proliferation inhibitory effect | much better antitumor effect than that of hsa-miR-34a | strong proliferation inhibitory effect |
| hsa-miR-3065-3p: human-derived miR-3065-3p; base sequence set forth in SEQ ID NO: 2 as mature miRNA (UCAGCACCAGGAUAUUGUUGGAG; listed as RNA, chemistry not given here; listed as Homo sapiens) | effectively suppress proliferation of cancer stem cells; also recorded: prominent proliferation inhibitory effect | much better antitumor effect than that of hsa-miR-34a | strong proliferation inhibitory effect | – | strong proliferation inhibitory effect | strong proliferation inhibitory effect | much better antitumor effect than that of hsa-miR-34a | much better antitumor effect than that of hsa-miR-34a; also recorded: particularly remarkable antitumor effect | strong proliferation inhibitory effect | much better antitumor effect than that of hsa-miR-34a; also recorded: particularly remarkable antitumor effect | strong proliferation inhibitory effect |
